Five compounds from patent US20240262835A1, “PRMT5 INHIBITING COMPOUNDS AND USES THEREOF” (ANTENGENE DISCOVERY LIMITED, priority 2023, published 2024) can be followed below.

Read-outs that look alike come from different tables or passages of the source.

In data set [1] the test system is cryopreserved hepatocytes. Description: Hepatic metabolic stability (HMS) assay, rat hepatocytes. The following applies: for T1/2 (hepatocytes) R / CLint (liver) R: rat hepatocytes; for T1/2 (hepatocytes) R: 1 μM test compound (3 μM positive control); for CLint (liver) R: scaled to liver; for CLint (hep) R: rat, hepatocytes.
Description: 1) 10 mM test compounds were provided.
(§1) 2) 30 mM positive control stock solutions: Dissolved accurate amount of positive control compounds in dimethyl sulfoxide (DMSO).
(§2) 3) 1000× Stock Solution: Diluted 10 mM test compounds and 30 mM positive control compounds to 1 mM and 3 mM with DMSO in 96-well plates.
(§3) 4) 100× Dosing Solution: Diluted 1 mM test compounds and 3 mM positive control compounds to 100 μM and 300 μM dosing solutions with ACN.
(§4) 5) Preparation of 0.5×10^6/mL cells suspension: cryopreserved cells were thawed, isolated and suspended in Incubation Medium, then diluted with pre-warmed Incubation Medium to 0.5×10^6 cells/mL.
(§5) 6) Add 198 μL of pre-warmed cell suspensions in 96-well plates.
(§6) 7) Preparation of Quenching Plate: Transfer 125 μL of stop solution in a set of pre-labeled 96-well plates.
(§7) 8) Spike 2 μL dosing solution to each well of 96-well plates in duplicate.
(§8) 9) For TO Samples, mix to achieve a homogenous suspension for about 1 min, then immediately transfer 25 μL of each sample into well containing 125 μL of ice-cold stop solution followed by mixing.
(§9) 10) Incubate all plates at 37° C. in a 95% humidified incubator at 5% CO2 to start the reactions with constant shaking.
(§10) 11) At 15, 30, 60 and 90 min, mix samples and then transfer 25 μL of each sample at each time point to well containing 125 μL of ice-cold stop solution followed by mixing.
(§11) 12) Medium Control (MC) sample plates (labeled as TO-MC and T90-MC) are prepared in the same way as cell incubation except that medium was used instead of cell suspension.
(§12) 13) At each corresponding time point, stop the reactions by removing the plates from incubator and mixing with 125 μL of ice-cold stop solution.
(§13) 14) Vortex the plates immediately on a plate shaker at 600 rpm for 10 minutes. Then, centrifuge all sample plates at 3220×g for 20 min at 4° C.
(§14) 15) After centrifugation, 80 μL/well of supernatant in the sample plates are transferred to another set of pre-labeled 96-well plates which containing 240 μL of ultra pure water according to the plate map.
(§15) 16) Analytical plates are sealed and store at 4° C. until LC-MS/MS analysis.
(§16) The remaining percents of test articles after incubation were calculated by the follow equations:
(§17) Use the following equation of first order kinetics to calculate T1/2 and CLint:
The next data set addresses PRMT5/MEP50 (Homo sapiens (Human), UniProt O14744). Kind of data set: MTase-Glo methyl transferase assay (PRMT5 inhibition). The data set is classed as biochemical. Conditions: 50 nM PRMT5/MEP50, 25 μM SAM, 5 μM Histone H4 peptide (1-21), read-out: IC50 for PRMT5 inhibiting. Here is the method: The PRMT5 inhibitory activity of test compounds was determined using the MTase-Glo™ assay (Promega), which monitors the product (S-adenosyl homocysteine or SAH) of methyltransferase reactions. The PRMT5 MTase-Glo assays were conducted in a 384-well white ProxiPlate (PerkinElmer, catalog no.: 6008280) in a total volume of 12 μL. The PRMT5 enzymatic reaction (in 4 μL) contained 50 nM PRMT5/MEP50 (Reaction Biology Corp, catalog no.: HMT-22-148), 25 μM S-adenosyl methionine (SAM, Promega), 5 μM Histone H4 peptide (1-21) (BPS Bioscience, catalog no.: 52018-2) and five-fold serially diluted compounds in a reaction buffer of 50 mM Tris (pH 8.0), 50 mM NaCl, 0.01% Tween 20, 0.01% BSA, and 1 mM DTT. The test compounds were pre-incubated with PRMT5/MEP50 and Histone H4 peptide for 20 minutes at room temperature before the addition of SAM to initiate the PRMT5 reaction. The reaction was allowed to proceed for 1 hour at 37° C. and was terminated by 2 μL of 3× MTase-Glo™ Reagent (Promega) and 150 μM EPZ015666 (Selleck, catalog no.: 1616391-65-1). After a 30-minute incubation at room temperature, 6 μL of MTase-Glo™ Detection Solution (Promega) was added and the plate was incubated at room temperature for an additional 30 minutes. The light signal corresponding to the amount of SAH produced by the PRMT5 reaction was subsequently measured using an Envision multimode reader (PerkinElmer). IC50 and Ki values were obtained by analyzing dose-response curves using GraphPad Prism.

Data set [2] has as its system human colon cancer cell line HCT116 (MTAP KO). Kind of data set: In vivo efficacy assay, subcutaneous HCT116 MTAP KO xenograft. Also on record: species or system Balb/C nude female mouse. The following applies: 15 mg/kg PO/QD, 21 days, Balb/C nude mice. The method, then:
The antitumor effect or MTAP/MTA selectivity of the compounds provided herein in the subcutaneously transplanted Balb/C nude female mouse model of human colon cancer cell line HCT116 (WT and MTAP KO) was tested.
Cell viability and cell count were determined. Cell count of the suspension was adjusted to 1×10^8 cells/mL and mixed with Matrigel in a 1:1 volume. Each mouse for this study were inoculated subcutaneously in the right front flank region with 5×10^6 tumor cells (0.1 mL) for tumor development.
The randomization started when the mean tumor size reaches approximately 100-150 mm^3. Mice inoculated with HCT116 WT cells were randomized on day 7. Mice inoculated with HCT116 MTAP KO cells were randomized on day 8. All animals were randomly allocated to 5 study groups, each group consisted of 8 animals. Randomization was performed based on randomized block design.
Tumor volume was measured twice per week in two dimensions using a caliper, and the volume was expressed in mm^3 using the formula: “V=(L×W×W)/2”, where V is tumor volume, L is tumor length (the longest tumor dimension) and W is tumor width (the longest tumor dimension perpendicular to L).

Data set [3] deals with cryopreserved hepatocytes. Description: Hepatic metabolic stability (HMS) assay, dog hepatocytes. Conditions: for T1/2 (hepatocytes) D / CLint (liver) D: dog hepatocytes; for T1/2 (hepatocytes) D: 1 μM test compound (3 μM positive control); for CLint (liver) D: scaled to liver; for CLint (hep) D: dog, hepatocytes.
Description: 1) 10 mM test compounds were provided.
as §1, §2, §3, §4, §5, §6, §7, §8, §9, §10, §11, §12, §13, §14, §15, §16, §17
The test system of data set [4] is cryopreserved hepatocytes. Kind of data set: Hepatic metabolic stability (HMS) assay, mouse hepatocytes. Conditions: for T1/2 (hepatocytes) M / CLint (liver) M: mouse hepatocytes; for T1/2 (hepatocytes) M: 1 μM test compound (3 μM positive control); for CLint (liver) M: scaled to liver; for CLint (hep) M: mouse, hepatocytes.
Description: 1) 10 mM test compounds were provided.
as §1, §2, §3, §4, §5, §6, §7, §8, §9, §10, §11, §12, §13, §14, §15, §16, §17
Data set [5] deals with HCT116 parental (wild type) cells. Kind of data set: HCT116 cell proliferation assay (CTG), parental cells. Type of data set: cell-based, human. The following applies: Cell Titer-Glo. Here is the method:
Control samples were analyzed in parallel.
On Day 0, 150 HCT116 parental or HCT116 homozygous MTAP knockout cells were seeded in 96-well plates in McCoy's 5A medium containing 10% fetal bovine serum and pen/strep. And the cells were incubated overnight at 37° C. and 5% CO2.
On Day 1, cells were treated with 9-point serial dilution of compound, using a top concentration of 50 μM, 1:5 serial dilution steps and, a DMSO-only control. And cells were incubated for 6 days.
On Day 7, cell viability was measured using a CTG assay Kit (Cell Titer-Glo; Promega, catalog no.: G7573) in accordance with the manufacturer's instructions. Assays plates were read on a EnVision™ Multilabel Reader using the Ultra-Sensitive luminescence model. The data were analyzed by GraphPad Prism 5.0 software, and the dose-effect curve was obtained by fitting the data using nonlinear S-curve regression, from which the IC50 value was calculated.
In general terms: In ATP-based viability assays light output follows the ATP content of the culture.

Data set [6] in a line: Liver microsome metabolic stability (LMS) assay, mouse. The following applies: for T1/2 of LMS, M: mouse liver microsome 0.5 mg protein/mL, 1 μM, NADPH. For orientation: Liver microsomes are vesicles of endoplasmic reticulum, rich in cytochrome P450 enzymes.
Data set [7] can be described thus: Liver microsome metabolic stability (LMS) assay, human.
Data set [8] is described as follows: Hepatic metabolic stability (HMS) assay, cynomolgus monkey hepatocytes. The following applies: cynomolgus monkey, cryopreserved hepatocytes.
Description: 1) 10 mM test compounds were provided.
as §1, §2, §3, §4, §5, §6, §7, §8, §9, §10, §11, §12, §13, §14, §15, §16, §17
Data set [9] can be described thus: Hepatic metabolic stability (HMS) assay, human hepatocytes. Conditions: human, cryopreserved hepatocytes.
For data set [10] the following is noted: microsomes; for CLint (mic) C / T1/2 of LMS, C: cynomolgus monkey.
The conditions of data set [11]: microsomes; for CLint (mic) D / T1/2 of LMS, D: dog.
For data set [12] the following is noted: microsomes; for CLint (mic) H / T1/2 of LMS, H: human.

Chain of PRMT5/MEP50 (O14744 whole entry): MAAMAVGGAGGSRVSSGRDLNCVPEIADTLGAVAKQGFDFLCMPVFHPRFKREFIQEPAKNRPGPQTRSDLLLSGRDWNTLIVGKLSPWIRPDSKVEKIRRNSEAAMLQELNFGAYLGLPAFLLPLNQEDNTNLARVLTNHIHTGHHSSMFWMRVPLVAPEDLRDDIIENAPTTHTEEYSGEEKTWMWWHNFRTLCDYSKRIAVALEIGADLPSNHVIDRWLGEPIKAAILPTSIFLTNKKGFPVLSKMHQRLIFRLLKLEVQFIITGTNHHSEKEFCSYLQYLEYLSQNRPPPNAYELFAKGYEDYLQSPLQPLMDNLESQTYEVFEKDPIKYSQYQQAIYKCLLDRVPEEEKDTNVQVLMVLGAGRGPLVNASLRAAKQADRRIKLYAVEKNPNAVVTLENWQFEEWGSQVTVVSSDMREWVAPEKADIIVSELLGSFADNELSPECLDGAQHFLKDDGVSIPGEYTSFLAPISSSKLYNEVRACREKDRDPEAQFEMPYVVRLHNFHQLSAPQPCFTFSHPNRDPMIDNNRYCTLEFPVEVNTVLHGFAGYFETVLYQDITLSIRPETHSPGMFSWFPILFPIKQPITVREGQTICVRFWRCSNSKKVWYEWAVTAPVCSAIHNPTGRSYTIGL
Chain of PRMT5/MEP50 (Q9BQA1 whole entry partner): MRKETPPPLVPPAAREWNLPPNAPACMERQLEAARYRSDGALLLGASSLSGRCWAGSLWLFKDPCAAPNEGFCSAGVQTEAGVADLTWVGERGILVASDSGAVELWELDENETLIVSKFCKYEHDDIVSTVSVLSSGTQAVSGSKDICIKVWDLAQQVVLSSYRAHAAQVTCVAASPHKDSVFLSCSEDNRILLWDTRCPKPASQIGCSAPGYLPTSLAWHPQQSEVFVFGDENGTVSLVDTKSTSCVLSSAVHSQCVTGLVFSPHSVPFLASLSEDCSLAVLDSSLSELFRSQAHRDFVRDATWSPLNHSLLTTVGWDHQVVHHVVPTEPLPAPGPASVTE

A word on the IC50: it is the concentration that gives 50% inhibition. Regarding `CN(C(=O)c1cc2c(cn1)nc(N)c1cncn12)C1CC(F)(F)c2cc(C(F)(F)F)ccc21` (centres unmarked) [Compound 24], in data set [1], the “T1/2 (hepatocytes) R” value was found to be 1.797 h, the “CLint (liver) R” value is recorded as 60.2 mL/min/kg and the “CLint (hep) R” value was found to be 12.9 μL/min/10^6. Also, at PRMT5/MEP50, the IC50 stood at 14 nM. Besides, the “Tumor growth inhibition (TGI) HCT 116 MTAP KO” value (from here on “Tumor growth inhibition”) in data set [2] is listed as 3%. Also, in data set [3], the “T1/2 (hepatocytes) D” value amounted to 3.577 h, the “CLint (liver) D” value is listed as 44.4 mL/min/kg and the “CLint (hep) D” value came to 6.5 μL/min/10^6. Also, in data set [4], the “T1/2 (hepatocytes) M” value came out at 1.27 h, the “CLint (liver) M” value is recorded as 216.4 mL/min/kg and the “CLint (hep) M” value is recorded as 18.2 μL/min/10^6. The IC50 in data set [5] (6 days treatment) was 3930 nM. For the same compound, the “T1/2 of LMS, M” value in data set [6] was greater than 2.42 h. For the setting “rat liver microsome”, the “CLint (mic) R” value is less than 9.6 µL/min/mg. The “T1/2 of LMS, R” value (rat liver microsome 0.5 mg protein/mL, 1 μM, NADPH) was greater than 2.42 h. Also, for the setting “rat liver microsome, scaled to liver”, the “CLint (liver) R” value was less than 17.3 mL/min/kg. In data set [7] (human liver microsome), the “CLint (mic) H” value was less than 9.6 µL/min/mg. Moreover, in [7] (human liver microsome 0.5 mg protein/mL, 1 μM, NADPH), the “T1/2 of LMS, H” value was greater than 2.42 h. Moreover, in [7] (human liver microsome, scaled to liver), the “CLint (liver) H” value was less than 8.6 mL/min/kg.
The term half-life denotes the time in which the quantity being followed falls by half. On to `CN(C(=O)c1ccc2nc(N)c3cncn3c2c1)[C@@H]1COc2cc(C(F)(F)F)ccc21` [Compound 12], for which the half-life at 1 μM in data set [8] stood at 1.11 h; in [9] it was 1.84 h; in data set [6] (mouse, liver microsomes), 1.14 h. For the same compound, the IC50 on PRMT5/MEP50 amounted to 26 nM; in data set [5] (Homo sapiens, HCT-116, 6 days treatment), 5160 nM.
Turning to `CN(C(=O)c1cc2c(cn1)nc(N)c1cncn12)C1COc2cc(C(F)(F)F)ccc21` (centres unmarked) [Compound 21], in data set [1], the “T1/2 (hepatocytes) R” value stood at 2.983 h, the “CLint (liver) R” value is 36.2 mL/min/kg and the “CLint (hep) R” value is 7.7 μL/min/10^6. Further, the IC50 on PRMT5/MEP50 amounted to 25 nM. Further, the “Tumor growth inhibition” value in [2] is 11%. For the same compound, in [3], the “T1/2 (hepatocytes) D” value is greater than 3.613 h, the “CLint (liver) D” value is less than 44 mL/min/kg and the “CLint (hep) D” value was less than 6.4 μL/min/10^6. In [4], the “T1/2 (hepatocytes) M” value is 2.582 h, the “CLint (liver) M” value turned out to be 106.3 mL/min/kg and the “CLint (hep) M” value is reported as 8.9 μL/min/10^6. Moreover, in data set [10], the “CLint (mic) C” value is less than 9.6 µL/min/mg; the “T1/2 of LMS, C” value was greater than 2.42 h; the “CLint (liver) C” value is less than 13.0 mL/min/kg. In addition, in [6], the “T1/2 of LMS, M” value is 1.82 h. Further, in data set [11], the “CLint (mic) D” value is less than 9.6 µL/min/mg; the “T1/2 of LMS, D” value is greater than 2.42 h; the “CLint (liver) D” value was less than 13.8 mL/min/kg. For the setting “microsomes”, the “CLint (liver) R” value is on record as less than 17.3 mL/min/kg. Further, where the note is “rat, microsomes”, the “CLint (mic) R” value is less than 9.6 µL/min/mg and the “T1/2 of LMS, R” value is greater than 2.42 h. In addition, in data set [12], the “CLint (mic) H” value was less than 9.6 µL/min/mg; the “T1/2 of LMS, H” value was greater than 2.42 h; the “CLint (liver) H” value is less than 8.6 mL/min/kg.
Take `CN(C(=O)c1cc2c(cn1)nc(N)c1cncn12)C1COc2cc(C(F)(F)F)ccc21` (centres unmarked) [Compound 19]: in data set [1], the “T1/2 (hepatocytes) R” value was determined as 2.443 h, the “CLint (liver) R” value is listed as 44.3 mL/min/kg and the “CLint (hep) R” value is 9.5 μL/min/10^6. Also, the IC50 on PRMT5/MEP50 was 25 nM. In addition, the “Tumor growth inhibition” value in data set [2] is listed as 11%. Besides, in data set [3], the “T1/2 (hepatocytes) D” value was greater than 3.613 h, the “CLint (liver) D” value is listed as less than 44 mL/min/kg and the “CLint (hep) D” value is listed as less than 6.4 μL/min/10^6. In [4], the “T1/2 (hepatocytes) M” value is 2.35 h, the “CLint (liver) M” value was determined as 116.7 mL/min/kg and the “CLint (hep) M” value came out at 9.8 μL/min/10^6. The IC50 in [5] (6 days treatment) turned out to be 3060 nM. Moreover, in data set [10], the “CLint (mic) C” value is less than 9.6 µL/min/mg; the “T1/2 of LMS, C” value is greater than 2.42 h; the “CLint (liver) C” value was less than 13.0 mL/min/kg. In data set [6], the “T1/2 of LMS, M” value stood at 2 h. In data set [11], the “CLint (mic) D” value is less than 9.6 µL/min/mg; the “T1/2 of LMS, D” value is greater than 2.42 h; the “CLint (liver) D” value is listed as less than 13.8 mL/min/kg. In addition, the “CLint (liver) R” value (microsomes) is given as less than 17.3 mL/min/kg. Also, for the setting “rat, microsomes”, the “CLint (mic) R” value is less than 9.6 µL/min/mg and the “T1/2 of LMS, R” value was greater than 2.42 h. In addition, in [12], the “CLint (mic) H” value is less than 9.6 µL/min/mg; the “T1/2 of LMS, H” value is greater than 2.42 h; the “CLint (liver) H” value is less than 8.6 mL/min/kg.
`CN(C(=O)c1ccc2nc(N)c3cncn3c2c1)C1COc2cc(C(F)(F)F)ccc21` (centres unmarked) [Compound 17]: the figures for the IC50 (on PRMT5/MEP50; in [5] (6 days treatment)) were 12 nM and 4080 nM, respectively. Further, the “Tumor growth inhibition” value in data set [2] is reported as −11%. Further, the “T1/2 of LMS, C” value in data set [10] was found to be 1.07 h. Moreover, the “T1/2 of LMS, D” value in data set [11] is greater than 2.42 h. Besides, for the setting “rat, microsomes”, the “T1/2 of LMS, R” value was greater than 2.42 h. Moreover, in data set [12], the “T1/2 of LMS, H” value is greater than 2.42 h.
